Measured values published in ChEMBL document CHEMBL4325868, “Design, synthesis and antitubercular activity of 4-alkoxy-triazoloquinolones able to inhibit the M. tuberculosis DNA gyrase” (Eur J Med Chem, 2019).
≈ marks a conversion by molar mass, not a printed value.

Experiments:
[1] = system: Mycobacterium tuberculosis; test: Antitubercular activity against Mycobacterium tuberculosis H37Rv after 7 days by resazurin microtiter assay; format: functional; conditions: 168 h
[2] = Cytotoxicity against African green monkey Vero cells assessed as cell viability at 100 uM after 72 hrs by MTT assay relative to control; format: cell-based; conditions: chlorocebus sabaeus, read-out: Activity
[3] = molecular target: DNA gyrase subunit A/DNA gyrase subunit B (Mycobacterium tuberculosis (strain ATCC 25618 / H37Rv), UniProt P9WG45+P9WG47); test: Inhibition of Mycobacterium tuberculosis DNA gyrase assessed as reduction in supercoiling of relaxed pBR322 DNA substrate after 30 mins by ethidium bromide staining based agarose gel electrophoresis method; format: protein-complex assay
Enterococcus faecalis = test: Antibacterial activity against Enterococcus faecalis ATCC 2491 after overnight incubation by broth dilution assay; format: functional
Salmonella typhimurium = test: Antibacterial activity against Salmonella typhimurium ATCC 14028 after overnight incubation by broth dilution assay; format: functional, Salmonella enterica subsp. enterica serovar Typhimurium; conditions: Salmonella enterica
Staphylococcus aureus = test: Antibacterial activity against Staphylococcus aureus ATCC 2913 after overnight incubation by broth dilution assay; format: functional
Candida tropicalis = test: Antifungal activity against Candida tropicalis after overnight incubation by broth dilution assay; format: functional
Escherichia coli = test: Antibacterial activity against Escherichia coli ATCC 15922 after overnight incubation by broth dilution assay; format: functional
Candida albicans = test: Antifungal activity against Candida albicans after overnight incubation by broth dilution assay; format: functional
[4] = system: Mycobacterium tuberculosis; test: Antitubercular activity against Mycobacterium tuberculosis isolate 147 after 7 days by resazurin microtiter assay; format: functional; conditions: isolate 147, 168 h
[5] = system: Mycobacterium tuberculosis; test: Antitubercular activity against Mycobacterium tuberculosis isolate 231 after 7 days by resazurin microtiter assay; format: functional; conditions: isolate 231, 168 h
[6] = system: Mycobacterium tuberculosis; test: Antitubercular activity against Mycobacterium tuberculosis isolate 1657 after 7 days by resazurin microtiter assay; format: functional; conditions: isolate 1657, 168 h
[7] = system: Mycobacterium tuberculosis; test: Antitubercular activity against Mycobacterium tuberculosis isolate 1567 after 7 days by resazurin microtiter assay; format: functional; conditions: isolate 1567, 168 h
[8] = system: Mycobacterium tuberculosis; test: Antitubercular activity against Mycobacterium tuberculosis isolate 1574 after 7 days by resazurin microtiter assay; format: functional; conditions: isolate 1574, 168 h
[9] = system: Mycobacterium tuberculosis; test: Antitubercular activity against Mycobacterium tuberculosis isolate 1777 after 7 days by resazurin microtiter assay; format: functional; conditions: isolate 1777, 168 h
[10] = system: Mycobacterium tuberculosis; test: Antitubercular activity against Mycobacterium tuberculosis isolate 1535 after 7 days by resazurin microtiter assay; format: functional; conditions: isolate 1535, 168 h

Chain of DNA gyrase subunit A/DNA gyrase subunit B (P9WG45 whole entry): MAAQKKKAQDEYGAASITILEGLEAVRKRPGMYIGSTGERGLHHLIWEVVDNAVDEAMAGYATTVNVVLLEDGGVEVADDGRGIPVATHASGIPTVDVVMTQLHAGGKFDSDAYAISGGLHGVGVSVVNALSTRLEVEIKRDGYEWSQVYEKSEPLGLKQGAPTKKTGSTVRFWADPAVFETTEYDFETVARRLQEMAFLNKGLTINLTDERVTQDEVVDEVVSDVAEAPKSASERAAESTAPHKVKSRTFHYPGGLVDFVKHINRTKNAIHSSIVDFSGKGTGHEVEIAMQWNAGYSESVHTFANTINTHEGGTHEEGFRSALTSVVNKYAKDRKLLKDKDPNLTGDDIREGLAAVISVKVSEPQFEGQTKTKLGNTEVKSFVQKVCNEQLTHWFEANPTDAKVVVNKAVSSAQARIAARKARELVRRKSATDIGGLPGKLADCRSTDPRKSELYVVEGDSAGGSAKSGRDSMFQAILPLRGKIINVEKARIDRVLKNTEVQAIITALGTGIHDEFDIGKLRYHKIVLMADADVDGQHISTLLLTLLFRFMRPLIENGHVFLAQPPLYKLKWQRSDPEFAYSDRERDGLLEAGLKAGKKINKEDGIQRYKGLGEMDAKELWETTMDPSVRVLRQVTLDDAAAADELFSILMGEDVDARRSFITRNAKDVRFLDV
Chain of DNA gyrase subunit A/DNA gyrase subunit B (P9WG47 whole entry): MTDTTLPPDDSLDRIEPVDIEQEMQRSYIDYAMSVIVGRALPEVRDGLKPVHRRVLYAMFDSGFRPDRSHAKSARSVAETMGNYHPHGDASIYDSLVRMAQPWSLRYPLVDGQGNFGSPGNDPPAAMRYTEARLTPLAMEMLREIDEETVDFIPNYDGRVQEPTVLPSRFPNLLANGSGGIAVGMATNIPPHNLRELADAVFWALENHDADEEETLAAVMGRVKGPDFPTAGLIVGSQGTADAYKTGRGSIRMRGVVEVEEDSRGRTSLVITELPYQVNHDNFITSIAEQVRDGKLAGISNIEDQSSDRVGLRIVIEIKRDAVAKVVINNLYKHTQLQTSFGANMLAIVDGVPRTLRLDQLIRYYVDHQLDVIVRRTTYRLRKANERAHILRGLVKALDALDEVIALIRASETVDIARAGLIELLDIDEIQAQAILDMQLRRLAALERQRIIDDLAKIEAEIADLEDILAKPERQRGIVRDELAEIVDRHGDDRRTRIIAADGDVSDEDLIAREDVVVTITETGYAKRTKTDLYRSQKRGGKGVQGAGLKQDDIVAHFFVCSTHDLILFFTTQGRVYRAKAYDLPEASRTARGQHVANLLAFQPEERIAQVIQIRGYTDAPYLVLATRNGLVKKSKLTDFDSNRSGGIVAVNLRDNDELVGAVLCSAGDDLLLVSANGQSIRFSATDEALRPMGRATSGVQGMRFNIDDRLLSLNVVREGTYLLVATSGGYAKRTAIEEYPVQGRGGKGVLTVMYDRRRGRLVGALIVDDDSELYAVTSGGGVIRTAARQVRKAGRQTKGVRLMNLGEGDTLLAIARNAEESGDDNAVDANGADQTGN

Compound	MIC [1] [µM]	viability at 72 h, 100 µM [2] [%]	other results
CCn1cc(C(=O)O)c(=O)c2cc(OC)c3nn(C)nc3c21	> 100	94.2	–
COc1cc2c(=O)c(C(=O)O)c[nH]c2c2nnn(C)c12	> 100	90.2	IC50 [3]: 91.3 µM
CCn1cc(C(=O)O)c(=O)c2cc(F)c3c(nnn3C)c21	> 100	95.1	–
CCOC(=O)c1cnc2c(cc(OC)c3nnn(C)c32)c1OC	> 100	80.8	–
Cn1cc(C(=O)O)c(=O)c2cc([N+](=O)[O-])c3c(nnn3C)c21	> 100	88.8	–
CCOc1c(C(=O)O)cnc2c1cc(OC)c1nnn(C)c12	> 100	83.6	–
CCSc1cc2c(=O)c(C(=O)O)cn(C)c2c2nnn(C)c12	50.3 (≈ 16 µg/mL)	87.7	–
Cn1cc(C(=O)O)c(=O)c2cc(F)c3c(nnn3C)c21	57.9 (≈ 16 µg/mL)	81.2	–
CCn1cc(C(=O)O)c(=O)c2cc(OC)c3c(nnn3C)c21	52.9 (≈ 16 µg/mL)	90.1	–
COC(=O)c1cn(C)c2c(ccc3c2nnn3C)c1=O	> 100	91.2	–
COc1cc2c(=O)c(C(=O)O)c[nH]c2c2c1nnn2C	> 100	92.9	–
CCOC(=O)c1cnc2c(cc(OC)c3nnn(C)c32)c1OCC	> 100	85.4	–
COc1c(C(=O)O)cnc2c1cc(OC)c1nnn(C)c12	> 100	85.7	–
CCOc1cc2c(=O)c(C(=O)O)cn(C)c2c2nnn(C)c12	6.6 (≈ 2 µg/mL)	94.3	MIC (Enterococcus faecalis): > 100 µM; MIC (Salmonella typhimurium): > 100 µM; MIC (Staphylococcus aureus): > 100 µM; IC50 [3]: 28.2 µM; MIC (Candida tropicalis): > 100 µM; MIC (Escherichia coli): > 100 µM; MIC (Candida albicans): > 100 µM
CCOc1cc2c(=O)c(C(=O)O)cn(CC)c2c2nnn(C)c12	25.3 (≈ 8 µg/mL)	92.1	–
CCOC(=O)c1cn(C)c2c(cc(OC)c3c2nnn3C)c1=O	> 100	92	–
CCOC(=O)c1cn(CC)c2c(cc(OC)c3c2nnn3C)c1=O	> 100	84.4	–
COc1cc2c(=O)c(C(=O)O)cn(C)c2c2nnn(C)c12	6.9 (≈ 1.99 µg/mL)	90.4	MIC (Enterococcus faecalis): > 100 µM; MIC (Salmonella typhimurium): > 100 µM; MIC [4]: 8 µM (≈ 2.31 µg/mL); MIC [5]: 4 µM (≈ 1.15 µg/mL); MIC [6]: 4 µM (≈ 1.15 µg/mL); MIC [7]: 32 µM (≈ 9.22 µg/mL); MIC (Staphylococcus aureus): > 100 µM; IC50 [3]: 27.6 µM; MIC (Candida tropicalis): > 100 µM; MIC (Escherichia coli): > 100 µM; MIC [8]: 32 µM (≈ 9.22 µg/mL); MIC (Candida albicans): > 100 µM; MIC [9]: 8 µM (≈ 2.31 µg/mL); MIC [10]: 16 µM (≈ 4.61 µg/mL)
CCOC(=O)c1cn(CC)c2c(cc(OC)c3nn(C)nc32)c1=O	> 100	79.3	–
CCOC(=O)c1cn(CC)c2c(cc(OCC)c3c2nnn3C)c1=O	> 100	95.1	–
COc1cc2c(=O)c(C(=O)O)cn(C)c2c2nn(C)nc12	27.8 (≈ 8.01 µg/mL)	89.5	–
O=C(O)c1cn(C2CC2)c2cc(N3CCNCC3)c(F)cc2c1=O [CIPROFLOXACIN]	1.5 (≈ 0.497 µg/mL)	95.2	–
